Data taken from patent US12544431B2, “Peptides for the treatment of cancer and/or metastasis” (BCN PEPTIDES, S.A., priority 2019, dated 2026).
“Also recorded” adds a separate entry of the source. Marks after values point to notes of the source that are not given here. Where a SMILES comes first, the peptide text is derived from it. [ ]: non-standard residue; d: D form. Phe(2,4,6-Me3) = Cc1cc(C)c(C[C@H](N)C(=O)O)c(C)c1; pGlu = O=C1CC[C@@H](C(=O)O)N1

Key:
[1] = test system: BE(2)-C neuroblastoma cells; experiment: Neuroblastoma metastatic mice model (BE(2)-C cells i.v. in tail vein); type: in vivo, SCID/Beige mice; conditions: for Absence of metastases, number of mice / Absence of metastases, percentage of mice / Presence of metastases (%), percentage of mice / Presence of metastases, number of mice: 13 weeks; for event-free survival, percentage of mice / event-free survival, number of mice: 13-week study; for event-free survival, number of mice: of 9 mice
Experimental: SCID/Beige female mice aged 5 weeks were administered subcutaneously (s.c.) at day −1 with the first dose of treatment, this is the vehicle (PBS) or the peptide SEQ ID NO: 7-NH2 at doses of 1 mg/kg and 2 mg/kg. On day 0, mice were injected intravenously (i.v.) in the tail vein with 2×10^5 BE(2)-C neuroblastoma cells. Afterwards, mice were treated s.c. three times per week (every 2-3 days) for 13 weeks with vehicle PBS (n=8) and SEQ ID NO: 7—NH2 1 mg/kg (n=9) and 2 mg/kg (n=9).

[2] = test system: SK-N-BE(2)-C neuroblastoma cells; experiment: Transwell invasion assay, SK-N-BE(2)-C cells; type: cell-based
Experimental: (§1) 10^5 RH30 or RD cells were plated in the upper chamber of a Matrigel-coated transwell (Corning) in 0.1 mL medium without FBS. Cells were previously incubated with different concentrations (0 nM, 100 nM, 200 nM, 500 nM and 1000 nM) of the peptides and peptide dimer for 48 hours, being also present in the medium during the cell invasion assay. In the lower chamber, 0.6 mL of medium with FBS was added. Cells were incubated at 37° ° C. for 24 hours.
(§2) After that, cells were fixed with 4% paraformaldehyde (Sigma) for 10 minutes, followed by washing with PBS. After removal of the Matrigel and remaining cells from the upper face of the membrane with a cotton swab, the cells present on the lower face were stained with a Hoechst dilution (Sigma) and were counted (5 fields for each well) with an inverted fluorescence microscope Nikon with a 10× objective. All experiments were made in triplicate. In Table 6 the % Invasiveness represents the mean percentage of invasive cells with respect to their controls.
(§3) The transwell assay with neuroblastoma cell lines (CHLA-90, BE(2)-C and SK—N-BE(2)-C)) and breast cancer cell lines (MDA-MB-231 and MDA-MB-468) was performed at the same conditions detailed for determining the % of invasiveness in rhabdomyosarcoma cells.

[3] = test system: BE(2)-C neuroblastoma cells; experiment: Transwell invasion assay, BE(2)-C cells; type: cell-based
Experimental: as §1, §2
(§4) The transwell assay with CHLA-90 and BE(2)-C cell lines was done following the same conditions detailed for determining the % of invasiveness in rhabdomyosarcoma cells.
as §3

[4] = test system: RD rhabdomyosarcoma cells; experiment: Rhabdomyosarcoma metastatic mice model (RD cells i.v. in tail vein); type: in vivo, SCID/Beige mice; conditions: for event-free survival vs vehicle group (in words): 27-week study; for Absence of metastases, number of mice / Absence of metastases, percentage of mice / Presence of metastases (%), percentage of mice / Presence of metastases, number of mice: 27 weeks; for body weight, treated vs vehicle-treated mice (in words): along the 27-week study
Experimental: SCID/Beige female mice aged of 5 weeks were administered subcutaneously (s.c.) at day −1 with the first dose of treatment i.e. the vehicle (PBS, Phosphate buffered saline) or the peptides. On day 0, mice were injected intravenously (i.v.) in the tail vein with 2×10^6 RD rhabdomyosarcoma cells.
Body weight was evaluated twice per week for 27 weeks. Overall survival and event-free survival were determined. At necropsy, the total number of metastases were quantified and the number of metastases per mice and their localization were also reported.

[5] = In vitro stability, half-life in human plasma; type: in vitro ADME; conditions: 90% human plasma, 37° C., RP-HPLC; read-out: t½ (hours) in human plasma (converted)
Experimental: The peptides and peptide dimer synthesized and prepared in accordance with Example 1 were dissolved in water at a concentration of 6 mg/mL and warmed up to 37° C.
Human plasma was obtained as a lyophilized solid (K3 EDTA Plasma, BBI Solutions, code S112-1), reconstituted with sterile 0.9% sodium chloride solution and stored at −20° C. Human plasma was thawed and incubated at 37° C. before use.
The peptides and peptide dimer were incubated in 90% human plasma at 37° C. for different times and then precipitated with two volume equivalents of methanol. The samples were cooled in an acetone-carbon dioxide bath for a few seconds and centrifuged for 12 minutes at 4° C. at approximately 10,000 rpm. The supernatant was filtered with a 0.45 μm PVDF filter and analyzed in triplicate by RP-HPLC using an isocratic method (Eluent A=0.1% TFA in water; Eluent B=0.07% TFA in ACN, Column=Kromasil C8, 100 Å, 5 μm, 250×4.6 mm, Flow=1 mL/min, Wavelength: 220 nm, Injection volume=20 μL, Temperature=60° C.). The disappearance of the compound was determined in relation to the area of the initial time to calculate its half-life.

[6] = test system: CHLA-90 neuroblastoma cells; experiment: Transwell invasion assay, CHLA-90 cells; type: cell-based
Experimental: as §1, §2, §4, §3

[7] = test system: RD rhabdomyosarcoma cells; experiment: Matrigel-coated transwell invasion assay, RD cells; type: cell-based; conditions: % invasive cells vs non-treated control
Experimental: as §1, §2

[8] = test system: MDA-MB-468 breast cancer cells; experiment: Transwell invasion assay, MDA-MB-468 cells; type: cell-based
Experimental: as §1, §2, §3

[9] = test system: MDA-MB-231 breast cancer cells; experiment: Transwell invasion assay, MDA-MB-231 cells; type: cell-based
Experimental: as §1, §2, §3

[10] = test system: RH30 rhabdomyosarcoma cells; experiment: Matrigel-coated transwell invasion assay, RH30 cells; type: cell-based; conditions: for % Invasiveness RH30: % invasive cells vs non-treated control
Experimental: as §1, §2

[11] = 1 mg/kg s.c. three times per week
[12] = 2 mg/kg s.c. three times per week
[13] = 0.5 mg/kg s.c. three times per week

## CSCC[C@H](NC(=O)[C@H](CO)NC(=O)[C@H](CC(N)=O)NC(=O)[C@H](CO)NC(=O)[C@H](CO)NC(=O)[C@H](CC(=O)O)NC(=O)[C@H](CCCNC(=N)N)NC(=O)[C@H](CCCCN)NC(=O)[C@@H]1CCC(=O)N1)C(=O)N[C@@H](CC(=O)O)C(=O)N[C@@H](CC(C)C)C(=O)N1CCC[C@H]1C(=O)N[C@@H](CCC(=O)O)C(=O)N[C@@H](Cc1c(C)cc(C)cc1C)C(=O)N[C@@H](CCCCN)C(N)=O [SEQ ID NO: 7-NH2, Pyr-Lys-Arg-Asp-Ser-Ser-Asn-Ser-Met-Asp-Leu-Pro-Glu-Msa-Lys-NH2] ([pGlu]KRDSSNSMDLPE[Phe(2,4,6-Me3)]K-NH2)
[1]; [11]
  Absence of metastases, number of mice: 2
  Absence of metastases, percentage of mice: 22%
  Presence of metastases (%), percentage of mice: 78%
  Presence of metastases, number of mice: 7
[1]; 1 mg/kg
  event-free survival, percentage of mice: 22%
  event-free survival, number of mice: 2
[1]; [12]
  Absence of metastases, number of mice: 5
  Absence of metastases, percentage of mice: 56%
  Presence of metastases (%), percentage of mice: 44%
  Presence of metastases, number of mice: 4
[1]; 2 mg/kg
  event-free survival, percentage of mice: 56%
  event-free survival, number of mice: 5
[2]; 100 nM peptide
  % Invasiveness SK-N-BE(2)-C: 84.35%
[2]; 200 nM peptide
  % Invasiveness SK-N-BE(2)-C: 91.84%
[2]; 500 nM peptide
  % Invasiveness SK-N-BE(2)-C: 73.31* %
[2]; 500 nM peptide, listed as SEQ ID NO: 7—NH2
  % Invasiveness SK-N-BE(2)-C: efficacious in inhibiting invasiveness; also recorded: significant reduction
[2]; 1000 nM peptide
  % Invasiveness SK-N-BE(2)-C: 52.70* %
[3]; 100 nM peptide
  % Invasiveness BE(2)-C: 95.15%
[3]; 200 nM peptide
  % Invasiveness BE(2)-C: 60.70* %
[3]; 500 nM peptide
  % Invasiveness BE(2)-C: 56.72* %
[3]; 1000 nM peptide
  % Invasiveness BE(2)-C: 33.21* %
[3]; concentration not given
  effect on BE(2)-C cell invasiveness (in words): significant reduction in cell invasiveness
[4]; 0.5 mg/kg (lower dose)
  event-free survival vs vehicle group (in words): did not show statistically significant difference; also recorded: did not show a significant effect
[4]; [13]
  Absence of metastases, number of mice: 1
  Absence of metastases, percentage of mice: 17%
  Presence of metastases (%), percentage of mice: 83%
  Presence of metastases, number of mice: 5
[4]; 0.5 mg/kg
  body weight, treated vs vehicle-treated mice (in words): vehicle-treated mice showed a statistically significant lower body weight
[4]; 0.5 mg/kg, vs PBS-treated mice
  reduction in metastases formation: ~15%
[4]; 2 mg/kg (higher dose), at necropsy
  number of metastases per mouse vs vehicle (in words): statistically reduced the formation of metastases per mouse; also recorded: efficacious in the reduction of the number of metastases
[4]; [12]
  Absence of metastases, number of mice: 5
  Absence of metastases, percentage of mice: 71%
  Presence of metastases (%), percentage of mice: 29%
  Presence of metastases, number of mice: 2
[4]; 2 mg/kg, Log-rank
  event-free survival vs vehicle group (in words): significant difference
[4]; 2 mg/kg
  body weight, treated vs vehicle-treated mice (in words): vehicle-treated mice showed a statistically significant lower body weight
[5]
  half-life at 0.6 mg/mL: 40.5 h
[6]; 100 nM peptide
  % Invasiveness CHLA-90: 94.31%
[6]; 200 nM peptide
  % Invasiveness CHLA-90: 52.37%
[6]; 500 nM peptide
  % Invasiveness CHLA-90: 38.94%
[6]; 1000 nM peptide
  % Invasiveness CHLA-90: 20.37* %
[6]; concentration not given
  effect on CHLA-90 cell invasiveness (in words): significant reduction in cell invasiveness
[7]; 100 nM peptide
  % Invasiveness RD: 30.82* %
[7]; 100 nM peptide, listed as SEQ ID NO: 7—NH2
  % Invasiveness RD: below 50%
[7]; 200 nM peptide
  % Invasiveness RD: 22.94* %
[7]; 500 nM peptide
  % Invasiveness RD: 17.60* %
[7]; 1000 nM peptide
  % Invasiveness RD: 19.68* %
[8]; 100 nM peptide
  % Invasiveness MDA-MB-468: 96.71%
[8]; 200 nM peptide
  % Invasiveness MDA-MB-468: 57.65%
[8]; 500 nM peptide
  % Invasiveness MDA-MB-468: 54.53* %
[8]; 1000 nM peptide
  % Invasiveness MDA-MB-468: 48.39* %
[8]; under treatment, concentration not given
  effect on MDA-MB-468 invasiveness (in words): clear reduction of invasiveness
[9]; 100 nM peptide
  % Invasiveness MDA-MB-231: 111.82%
[9]; 200 nM peptide
  % Invasiveness MDA-MB-231: 109.71%
[9]; 500 nM peptide
  % Invasiveness MDA-MB-231: 99.97%
[9]; 1000 nM peptide (highest treatment dose)
  % Invasiveness MDA-MB-231: 53.69%
[9]; 1000 nM peptide (highest treatment dose), listed as SEQ ID NO: 7—NH2
  % Invasiveness MDA-MB-231: moderate reduction
[10]; 100 nM peptide
  % Invasiveness RH30: 121.38%
[10]; 200 nM peptide
  % Invasiveness RH30: 77.38%
[10]; 500 nM peptide
  % Invasiveness RH30: 65.59%
[10]; 1000 nM peptide
  % Invasiveness RH30: 63.23%
[10]; concentration not stated (100-1000 nM tested)
  effect on % invasiveness of RH30 cell line (in words): diminishing % invasiveness without reaching significance
